Source: publication PMC4769084, “Aminoglycoside binding and catalysis specificity of aminoglycoside 2″-phosphotransferase IVa: A thermodynamic, structural and kinetic study” (Biochimica et Biophysica Acta, 2016)
Like-named read-outs stand apart in the source and are kept apart here.

How the values were obtained:
[1] = biological target: T1, APH(2″)-IVa (Enterococcus casseliflavus, UniProt O68183); assay: Isothermal titration calorimetry of aminoglycoside binding
Method: The enzyme was extensively dialyzed against buffer containing 50 mM Tris–HCl at pH 7.5, 40 mM KCl, 1 mM MgCl2 and ligand solutions were prepared at 5 mM in the final dialysate with readjusting pH to 7.5. The enzyme was used at a final concentration of 150 μM. ITC experiments were carried out at 25 °C in a VP-ITC calorimeter (MicroCal, GE Healthcare). Titrations consisted of 40 injections of 5 μL of ligand every 300 s. The cell stirring speed was 300 rpm. To obtain reliable dissociation constants, the c-value, a unitless parameter obtained by the multiplication of the association constant and the total concentration of ligand binding sites, was kept between 1.8 and 100 for all titrations. Control runs were performed by titrating ligands to buffer, and the resulting background signal was subtracted from the corresponding experimental data. Experiments were carried out at 1 mM free Mg^2 +.
Binding and thermodynamic parameters Ka (association constant), ΔH (enthalpy change) and stoichiometry were obtained by nonlinear least-squares fitting of experimental data using a single-site binding model of the Origin software package (version 5.0) provided with the instrument. The free energy of binding (ΔG) and entropy change at 25 °C (ΔS) were obtained using the following equations:(1) ΔG=–RTlnKa (2) ΔG=ΔH–TΔS
The experiments were performed in triplicate (except with G418 and kanamycin B, in duplicate) and the error values given in the tables are standard deviations.

[2] = biological target: T1, APH(2″)-IVa; conditions: for phosphotransferase activity: confirmed at 5 μM APH(2″)-IVa, 2.5 mM ATP; for Kd/Km: ratio of ITC Kd to steady state Km; for Km / kcat: saturating MgATP (2.5 mM), aminoglycoside 0 to 100 μM, 25 °C, pH 7.5; for Km: na = no detectable activity; for kcat: na = no detectable activity (< 0.001 s^− 1), enzyme up to 5 μM
Method: (§1) Unless otherwise stated, kinetic experiments were carried out in a buffer that contained 50 mM Tris, 40 mM KCl, 1 mM free MgCl2 adjusted to pH 7.5 with HCl at 25 °C. In the case of experiments with CaATP, the buffer was MgCl2-free.
Steady state kinetics were carried out in thermostatically controlled beakers as already described. Unless otherwise stated, the enzyme concentration was 0.5 μM in the presence of various concentrations of aminoglycoside (5 to 100 μM). […] At regular intervals, a volume of 80 μL of the reaction mixture was sampled from the beaker and mixed in a tube containing 40 μL of perchloric acid at 10%. The precipitated protein was then removed by centrifugation at 4 °C, 20 min at 19,000 g. ADP and ATP were separated by HPLC (Waters) on an anion-exchange column (SAX-Partisphere, AIT France). The mobile phase was 200 mM ammonium phosphate–HCl buffer at pH 5.5 and 10% acetonitrile. A 100 μL volume of the quenched reaction mixture was diluted in 900 μL of buffer containing the mobile phase supplemented with 5 N KOH to readjust the pH to 5.5. Quantification of ADP and ATP was obtained by integrating HPLC peaks at 259 nm and their concentrations were reported relative to the enzyme concentration. […] For each injected sample, the concentration of ADP was calculated using the following equation, where [ATP]i is the initial ATP concentration used in the experiment:(3) ADP=ADPpeakarea×ATPi/ADPpeakarea+ATPpeakarea

[3] = test system: APH(2″)-IVa; design: method as in Toth et al. [5]; conditions: values in brackets, coupled enzyme system; ref Toth et al. [5]; cited from earlier work
[4] = biological target: T1, APH(2″)-IVa; assay: Transient kinetics, rapid quench–flow (total ADP); format: biochemical; conditions: 5 μM APH(2″)-IVa, 500 μM ATP, 100 μM aminoglycoside; for Aburst: ± standard error of fit
Method: as §1
(§2) Transient kinetic experiments were carried out at 25 °C in a QFM-400 quench–flow (Bio-Logic, France) or in a SF-61 DX2 stopped–flow (TgK Scientific, UK). In the quench–flow method, APH(2″)-IVa, pre-incubated with the aminoglycoside, was mixed with ATP in the apparatus. The mixtures were aged for specific times (from 8 ms to several seconds), quenched in 10% perchloric acid and the ADP and ATP measured by HPLC, as described above. Because perchloric acid dissociates all non-covalent complexes, by this method, concentrations in the reaction mixtures of total ADP, that is to say enzyme-bound ADP plus free ADP, are obtained. In the stopped–flow experiments, a free ADP fluorescent biosensor, MDCC-ParM [28], was included in the ATP solution. By this method, concentrations in the reaction mixtures of free ADP only are obtained. Experiments were carried out as previously described for APH(3′)-IIIa.

[5] = biological target: T1, APH(2″)-IVa; assay: Transient kinetics, stopped–flow with MDCC-ParM ADP biosensor (free ADP); format: biochemical; conditions: 5 μM APH(2″)-IVa, 500 μM ATP, 100 μM aminoglycoside, 50 μM MDCC-ParM
Method: as §1, §2

[6] = test system: CN[C@@H]1[C@@H](O)[C@@H](O[C@@H]2[C@@H](O)[C@H](O[C@H]3OC(CN)=CC[C@H]3N)[C@@H](N)C[C@H]2N)OC[C@]1(C)O; assay: purified protein, by the assay type; conditions: other: saturating MgATP (2.5 mM), aminoglycoside 0 to 100 μM, 25 °C, pH 7.5, na = no detectable activity
Method: (§3) Steady state kinetics were carried out in thermostatically controlled beakers as already described [27]. Unless otherwise stated, the enzyme concentration was 0.5 μM in the presence of various concentrations of aminoglycoside (5 to 100 μM). […] Reactions were initiated by adding a saturating concentration of ATP (2.5 mM) in a thermostatically controlled beaker containing APH(2″)-IVa and aminoglycoside. At regular intervals, a volume of 80 μL of the reaction mixture was sampled from the beaker and mixed in a tube containing 40 μL of perchloric acid at 10%. The precipitated protein was then removed by centrifugation at 4 °C, 20 min at 19,000 g. ADP and ATP were separated by HPLC (Waters) on an anion-exchange column (SAX-Partisphere, AIT France). The mobile phase was 200 mM ammonium phosphate–HCl buffer at pH 5.5 and 10% acetonitrile. A 100 μL volume of the quenched reaction mixture was diluted in 900 μL of buffer containing the mobile phase supplemented with 5 N KOH to readjust the pH to 5.5. Quantification of ADP and ATP was obtained by integrating HPLC peaks at 259 nm and their concentrations were reported relative to the enzyme concentration. Concentrations (in the quenched reaction mixtures) between 0.5 and 500 μM of ADP or ATP gave a linear and equivalent OD259 response. For each injected sample, the concentration of ADP was calculated using the following equation, where [ATP]i is the initial ATP concentration used in the experiment:(3) ADP=ADPpeakarea×ATPi/ADPpeakarea+ATPpeakarea

[7] = test system: NC[C@H]1O[C@H](O[C@H]2[C@H](O)[C@@H](O[C@H]3O[C@H](CO)[C@@H](O)[C@H](N)[C@H]3O)[C@H](N)C[C@@H]2N)[C@H](N)C[C@@H]1O; assay: purified protein, by the assay type; conditions: other: saturating MgATP (2.5 mM), aminoglycoside 0 to 100 μM, 25 °C, pH 7.5, na = no detectable activity
Method: as §3

[8] = test system: NC[C@H]1O[C@H](O[C@H]2[C@H](O)[C@@H](O[C@H]3O[C@H](CO)[C@@H](O)[C@H](N)[C@H]3O)[C@H](N)C[C@@H]2N)[C@H](N)[C@@H](O)[C@@H]1O; assay: purified protein, by the assay type; conditions: other: saturating MgATP (2.5 mM), aminoglycoside 0 to 100 μM, 25 °C, pH 7.5, na = no detectable activity
Method: as §3

T1 sequence (O68183 entry or part of it): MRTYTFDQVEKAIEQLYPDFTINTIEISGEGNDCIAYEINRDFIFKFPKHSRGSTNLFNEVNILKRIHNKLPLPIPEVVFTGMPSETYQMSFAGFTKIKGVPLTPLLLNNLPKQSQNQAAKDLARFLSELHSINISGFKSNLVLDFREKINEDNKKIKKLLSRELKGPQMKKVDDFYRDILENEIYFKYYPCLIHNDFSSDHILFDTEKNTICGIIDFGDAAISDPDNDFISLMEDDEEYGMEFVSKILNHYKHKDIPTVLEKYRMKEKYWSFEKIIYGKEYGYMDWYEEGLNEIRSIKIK

Compound	Kd [1]	Km [3]	kcat [3]	Kd/Km [2]	kburst [4]	kss [4]	Aburst [4]	klag [5]	kss [5]	other results
NCC[C@H](O)C(=O)N[C@@H]1C[C@H](N)[C@@H](O[C@H]2O[C@H](CN)[C@@H](O)[C@H](O)[C@H]2O)[C@H](O)[C@H]1O[C@H]1O[C@H](CO)[C@@H](O)[C@H](N)[C@H]1O [Amikacin]	82.2 ± 8.9 µM	98 µM	(0.15 ± 0.01) s^− 1							phosphotransferase activity [2]: absence of activity
CN[C@@H]1[C@@H](O)[C@@H](O[C@@H]2[C@@H](O)[C@H](O[C@H]3O[C@H]([C@@H](C)O)[C@@H](O)[C@H](O)[C@H]3N)[C@@H](N)C[C@H]2N)OC[C@]1(C)O [G418]				12.5	2.0 ± 1.1 s^− 1	0.35 ± 0.04 s^− 1	0.34 ± 0.11 mol/mol	1.6 ± 0.1 s^− 1	0.33 ± 0.01 s^− 1	Kd ([1]; read-out: Kd): 27.5 ± 3.3 µM; Km [2]: 2.2 ± 0.4 µM; kcat [2]: 0.49 ± 0.01 s^− 1
CNC(C)C1CCC(N)C(OC2C(N)CC(N)C(OC3OCC(C)(O)C(NC)C3O)C2O)O1 (centres unmarked) [Gentamicin]	9.7 ± 5 µM			2.9						Km [2]: 3.3 ± 0.6 µM; kcat [2]: 0.47 ± 0.01 s^− 1
NC[C@H]1O[C@H](O[C@H]2[C@H](O)[C@@H](O[C@H]3O[C@H](CO)[C@@H](O)[C@H](N)[C@H]3O)[C@H](N)C[C@@H]2N)[C@H](N)[C@@H](O)[C@@H]1O [Kanamycin B]	5.7 ± 1.1 µM			0.5						
NC[C@@H]1O[C@H](O[C@H]2[C@@H](O)[C@H](O[C@@H]3[C@@H](O)[C@H](N)C[C@H](N)[C@H]3O[C@H]3O[C@H](CO)[C@@H](O)[C@H](O)[C@H]3N)O[C@@H]2CO)[C@H](N)[C@@H](O)[C@@H]1O [Paromomycin]	63.6 ± 29 µM									phosphotransferase activity [2]: absence of activity
CN[C@@H]1[C@@H](O)[C@@H](O[C@@H]2[C@@H](O)[C@H](O[C@H]3OC(CN)=CC[C@H]3N)[C@@H](N)C[C@H]2N)OC[C@]1(C)O [Sisomicin]	2.3 ± 1.6 µM			0.7	2.0 ± 0.4 s^− 1	0.50 ± 0.02 s^− 1	0.48 ± 0.07 mol/mol	1.6 ± 0.1 s^− 1	0.48 ± 0.01 s^− 1	
NC[C@H]1O[C@H](O[C@H]2[C@H](O)[C@@H](O[C@H]3O[C@H](CO)[C@@H](O)[C@H](N)[C@H]3O)[C@H](N)C[C@@H]2N)[C@H](N)C[C@@H]1O [Tobramycin]	3.9 ± 0.6 µM	1.5 µM	(1.80 ± 0.03) s^− 1	0.3	2.1 ± 0.4 s^− 1	1.08 ± 0.02 s^− 1	0.44 ± 0.05 mol/mol	3.3 ± 0.1 s^− 1	1.05 ± 0.01 s^− 1	affinity of the apoprotein, times greater than for kanamycin A and for amikacin ([1]; ITC Kd comparison): 20 times
APH(2″)-IVa (Enterococcus casseliflavus)										Km [6]: 3.5 ± 0.6 µM; kcat [6]: 0.73 ± 0.02 s^− 1; kcat/Km [6]: 0.209 μM^− 1 s^− 1; Km [7]: 13.2 ± 2.2 µM; kcat [7]: 1.64 ± 0.08 s^− 1; kcat/Km [7]: 0.124 μM^− 1 s^− 1; Km [8]: 12.5 ± 2.9 µM; kcat [8]: 1.69 ± 0.11 s^− 1; kcat/Km [8]: 0.135 μM^− 1 s^− 1
Kanamycin A		3.3 µM	(0.92 ± 0.01) s^− 1	20.0	3.4 ± 0.7 s^− 1	0.77 ± 0.02 s^− 1	0.38 ± 0.04 mol/mol	3.4 ± 0.1 s^− 1	0.70 ± 0.01 s^− 1	Kd, fold larger compared to tobramycin ([1]; ITC Kd comparison): 20 fold; steady state rate constant ([2]; 0.5 μM APH(2″)-IVa, 100 μM kanamycin A, 100 μM MgATP): 0.23 s^− 1; steady state rate constant ([2]; 0.5 μM APH(2″)-IVa, 100 μM kanamycin A, 200 μM MgATP): 0.37 s^− 1; kss, CaATP phosphotransferase activity ([2]; 0.5 μM APH(2″)-IVa, 100 μM kanamycin A, 2 mM CaATP): 0.092 s^− 1; kss, MgATP phosphotransferase activity ([2]; 0.5 μM APH(2″)-IVa, 100 μM kanamycin A, 2 mM MgATP): 0.84 s^− 1; Km, fold lower compared with tobramycin ([2]; in the presence of ATP): 3.3 fold; Kd/Km ([2]; listed as kanamycin A): 20
